Data: US9718804B2, “GSK-3 inhibitors” (BRISTOL-MYERS SQUIBB COMPANY, priority 2013, dated 2017)
Read-outs that look alike come from different tables or passages of the source.

Tests used:
GSK3β = GSK3β (Homo sapiens, UniProt P49841); assay: GSK3β kinase assay (Caliper LabChip, fluoresceinated peptide substrate); type: biochemical
Procedure: (§1) The kinase assay was performed in V-bottom 384-well plates. […] The reaction was incubated at room temperature for 20 hours and terminated by adding 45 μl of 35 mM EDTA to each sample. The reaction mixture was analyzed on the Caliper LabChip3000 (Caliper, Hopkinton, Mass.) by electrophoretic separation of the unphosphorylated substrate and phosphorylated product. […] Compounds were dissolved at 10 mM in dimethylsulfoxide (DMSO) and evaluated at eleven concentrations. IC50 values were derived by non-linear regression analysis.

GSK3α = GSK3α (Homo sapiens, UniProt P49840); assay: GSK3α kinase assay (Caliper LabChip, fluoresceinated peptide substrate); type: biochemical
Sequence of GSK3α (P49840 whole entry, species assumed): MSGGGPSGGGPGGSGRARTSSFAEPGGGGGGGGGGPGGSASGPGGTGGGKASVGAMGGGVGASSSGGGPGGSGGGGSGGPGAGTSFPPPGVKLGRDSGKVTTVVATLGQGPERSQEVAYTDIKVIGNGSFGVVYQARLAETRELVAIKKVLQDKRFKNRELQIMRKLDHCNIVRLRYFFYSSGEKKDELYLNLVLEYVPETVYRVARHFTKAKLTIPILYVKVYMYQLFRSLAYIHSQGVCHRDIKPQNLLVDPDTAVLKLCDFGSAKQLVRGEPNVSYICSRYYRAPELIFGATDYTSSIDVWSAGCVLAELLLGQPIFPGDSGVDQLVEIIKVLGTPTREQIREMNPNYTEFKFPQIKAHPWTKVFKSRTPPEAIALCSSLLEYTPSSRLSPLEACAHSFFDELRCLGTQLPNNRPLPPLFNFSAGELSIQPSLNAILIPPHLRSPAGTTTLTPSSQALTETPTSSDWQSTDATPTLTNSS
Procedure: as §1

pTau = pTau assay (no method described); type: cell-based
[1] = first value of the cell, 250 pM enzyme, 20 uM ATP, 20 hours at room temperature, read-out: GSK3β/α (nM): GSK3β IC50

Sequence of GSK3β (P49841 whole entry, species assumed): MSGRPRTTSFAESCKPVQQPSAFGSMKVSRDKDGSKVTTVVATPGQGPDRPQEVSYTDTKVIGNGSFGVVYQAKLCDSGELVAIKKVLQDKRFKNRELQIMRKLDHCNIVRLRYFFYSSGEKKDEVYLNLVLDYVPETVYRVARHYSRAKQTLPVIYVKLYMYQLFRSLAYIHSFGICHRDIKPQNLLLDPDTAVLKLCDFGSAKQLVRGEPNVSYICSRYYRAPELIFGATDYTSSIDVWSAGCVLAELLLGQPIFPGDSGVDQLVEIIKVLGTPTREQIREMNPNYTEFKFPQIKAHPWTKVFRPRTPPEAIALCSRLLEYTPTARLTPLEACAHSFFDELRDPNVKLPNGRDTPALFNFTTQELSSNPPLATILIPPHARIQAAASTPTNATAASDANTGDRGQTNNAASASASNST

SMILES | IC50 (GSK3β; [1]) | IC50 (GSK3α) | IC50 (pTau) | IC50 (GSK3β) | IC50 (GSK3α; second value of the cell, 250 pM enzyme, 20 uM ATP, 20 hours at room temperature, read-out: GSK3β/α (nM): GSK3α IC50)
O=C(Nc1cnccc1OCCN1CCOCC1)c1ccnc(Nc2ccc(C(F)(F)F)cn2)c1 [Example 47, N-(4-(2-Morpholinoethoxy)pyridin-3-yl)-2-((5-(trifluoromethyl)pyridin-2-yl)amino)isonicotinamide] | 18 nM | 5.6 nM | 420 nM | – | –
CC1(C)CN(c2ccncc2NC(=O)c2ccnc(Nc3ccc(C#N)cn3)c2)CCO1 [Example 28, 2-((5-Cyanopyridin-2-yl)amino)-N-(4-(2,2-dimethylmorpholino)pyridin-3-yl)isonicotinamide] | 0.55 nM | 0.37 nM | 16 nM | – | –
CC(C)(C)Sc1ccncc1NC(=O)c1ccnc(Nc2ccc(C(F)(F)F)cn2)c1 [Example 174, N-(4-(tert-Butylthio)pyridin-3-yl)-2-((5-(trifluoromethyl)pyridin-2-yl)amino)isonicotinamide] | 0.14 nM | 0.08 nM | 27 nM | – | –
O=C(Nc1cnccc1-c1ccccc1)c1ccnc(Nc2cccc(C(F)(F)F)n2)c1 [Example 2, N-(4-Phenylpyridin-3-yl)-2-((6-(trifluoromethyl)pyridin-2-yl)amino)isonicotinamide] | 6.8 nM | 7.3 nM | 574 nM | – | –
CC(C)Sc1ccncc1NC(=O)c1ccnc(Nc2ccc(C(F)(F)F)cn2)c1 [Example 173, N-(4-(Isopropylthio)pyridin-3-yl)-2-((5-(trifluoromethyl)pyridin-2-yl)amino)isonicotinamide] | 0.52 nM | 0.19 nM | 48 nM | – | –
O=C(Nc1cnc2cccnn12)c1ccnc(Nc2ccc(C(F)(F)F)cn2)c1 [Example 210, N-(Imidazo[1,2-b]pyridazin-3-yl)-2-((5-(trifluoromethyl)pyridin-2-yl)amino)isonicotinamide] | 33 nM | 11 nM | 2300 nM | – | –
CCOc1ccncc1NC(=O)c1ccnc(Nc2ccc(C(F)(F)F)cn2)c1 [Example 15, N-(4-Ethoxypyridin-3-yl)-2-((5-trifluoromethylpyridin-2-yl)amino)isonicotinamide] | 1.3 nM | 0.56 nM | 42 nM | – | –
CCC1(c2cc(Cl)ncc2NC(=O)c2ccnc(Nc3ccc(C(F)(F)F)cn3)c2)OCCO1 [Example 79, N-(6-Chloro-4-(2-ethyl-1,3-dioxolan-2-yl)pyridin-3-yl)-2-((5-(trifluoromethyl)pyridin-2-yl)amino)isonicotinamide] | 0.31 nM | 0.17 nM | 33 nM | – | –
CC(C)S(=O)(=O)c1ccncc1NC(=O)c1ccnc(Nc2ccc(C(F)(F)F)cn2)c1 [Example 186, N-(4-(Isopropylsulfonyl)pyridin-3-yl)-2-((5-(trifluoromethyl)pyridin-2-yl)amino)isonicotinamide] | – | – | 2 nM | 1.2 nM | 0.04 nM
C[C@@H]1COCCN1c1ccncc1NC(=O)c1ccnc(Nc2ccc(C(F)(F)F)cn2)c1 [Example 21, (R)—N-(4-(3-Methylmorpholino)pyridin-3-yl)-2-((5-(trifluoromethyl)pyridin-2-yl)amino)isonicotinamide] | 0.7 nM | 0.28 nM | 9.1 nM | – | –
Cc1cc(N2CCC(F)(F)CC2)c(NC(=O)c2ccnc(Nc3ccc(C(F)(F)F)cn3)c2)cn1 [Example 72, N-(6-Methyl-4-(4,4-difluoropiperidin-1-yl)pyridin-3-yl)-2-((5-(trifluoromethyl)pyridin-2-yl)amino)isonicotinamide] | 3.5 nM | 0.76 nM | 120 nM | – | –
O=C(Nc1cncc2ccccc12)c1ccnc(Nc2ccc(C(F)(F)F)cn2)c1 [Example 64, N-(Isoquinolin-4-yl)-2-((5-(trifluoromethyl)pyridin-2-yl)amino)isonicotinamide] | 10 nM | 3.1 nM | 610 nM | – | –
O=C(Nc1cnncc1Br)c1ccnc(Nc2ccc(C(F)(F)F)cn2)c1 [Example 197, N-(5-Bromopyridazin-4-yl)-2-((5-(trifluoromethyl)pyridin-2-yl)amino)isonicotinamide] | 70 nM | 22 nM | 3500 nM | – | –
O=C(Nc1cnccc1-c1ccccc1)c1ccnc(Nc2ccccn2)c1 [Example 1, N-(4-Phenylpyridin-3-yl)-2-(pyridin-2-ylamino)isonicotinamide] | 3.4 nM | 2.6 nM | 213 nM | – | –
N#CC1(c2ccc(Nc3cc(C(=O)Nc4cncc(-c5ccccc5F)c4)ccn3)nc2)CC1 [Example 163, 2-((5-(1-Cyanocyclopropyl)pyridin-2-yl)amino)-N-(5-(2-fluorophenyl)pyridin-3-yl)isonicotinamide] | 3.2 nM | 1.1 nM | 610 nM | – | –
CC[C@@]1(c2cc(Cl)ncc2NC(=O)c2ccnc(Nc3ccc(C(F)(F)F)cn3)c2)OC[C@@H](C)O1 [Example 90, N-(6-Chloro-4-((2R,4R)-2-ethyl-4-methyl-1,3-dioxolan-2-yl)pyridin-3-yl)-2-((5-(trifluoromethyl)pyridin-2-yl)amino)isonicotinamide] | 2 nM | 0.94 nM | 150 nM | – | –
COc1cc(C2(C)OCCO2)c(NC(=O)c2ccnc(Nc3ccc(C(F)(F)F)cn3)c2)cn1 [Example 91, N-(6-Methoxy-4-(2-methyl-1,3-dioxolan-2-yl)pyridin-3-yl)-2-((5-(trifluoromethyl)pyridin-2-yl)amino)isonicotinamide] | 3.9 nM | 20 nM | 1200 nM | – | –
N#Cc1cccc(Nc2cc(C(=O)Nc3cncc(-c4ccccc4F)c3)ccn2)n1 [Example 152, 2-((6-Cyanopyridin-2-yl)amino)-N-(5-(2-fluorophenyl)pyridin-3-yl)isonicotinamide] | 1.6 nM | 0.87 nM | 260 nM | – | –
O=C(Nc1cnccc1-c1ccc(F)cc1C(F)(F)F)c1ccnc(Nc2ccc(C(F)(F)F)cn2)c1 [Example 53, N-(4-(2-Trifluoromethyl-4-fluoro-phenyl)pyridin-3-yl)-2-((5-(trifluoromethyl)pyridin-2-yl)amino)isonicotinamide] | 0.51 nM | 0.57 nM | 8.3 nM | – | –
O=C(Nc1cnccc1OCCN1CCCC1)c1ccnc(Nc2ccc(C(F)(F)F)cn2)c1 [Example 46, N-(4-(2-(Pyrrolidin-1-yl)ethoxy)pyridin-3-yl)-2-((5-(trifluoromethyl)pyridin-2-yl)amino)isonicotinamide] | 150 nM | 75 nM | 4300 nM | – | –
O=C(Nc1cncc(-c2ccccc2F)c1)c1ccnc(Nc2cccc(C(F)(F)F)n2)c1 [Example 134, N-(5-(2-Fluorophenyl)pyridin-3-yl)-2-((6-(trifluoromethyl)pyridin-2-yl)amino)isonicotinamide] | 3.9 nM | 1.5 nM | 470 nM | – | –
COc1ccc(Nc2cc(C(=O)Nc3cncc(-c4ccccc4F)c3)ccn2)nc1OC [Example 151, 2-((5,6-Dimethoxypyridin-2-yl)amino)-N-(5-(2-fluorophenyl)pyridin-3-yl)isonicotinamide] | 6 nM | 2.4 nM | 510 nM | – | –
CC(O)c1ccncc1NC(=O)c1ccnc(Nc2ccc(C(F)(F)F)cn2)c1 (stereo not drawn) [Example 34, N-(4-(1-Hydroxyethyl)pyridin-3-yl)-2-((5-(trifluoromethyl)pyridin-2-yl)amino)isonicotinamide] | 3.2 nM | 1.4 nM | 37 nM | – | –
O=C(Nc1cncc(-c2ccccc2)c1)c1ccnc(Nc2cccc(C(F)(F)F)n2)c1 [Example 144, N-(5-Phenylpyridin-3-yl)-2-((6-(trifluoromethyl)pyridin-2-yl)amino)isonicotinamide] | 10 nM | 39 nM | 910 nM | – | –
O=C(Nc1cncnc1OCC(F)(F)F)c1ccnc(Nc2ccc(C(F)(F)F)cn2)c1 [Example 194, N-(4-(2,2,2-Trifluoroethoxy)pyrimidin-5-yl)-2-((5-(trifluoromethyl)pyridin-2-yl)amino)isonicotinamide] | 3.2 nM | 1.6 nM | 140 nM | – | –
O=C(Nc1cnccc1-c1ccccc1)c1ccnc(Nc2cc3ccccc3cn2)c1 [Example 115, 2-(Isoquinolin-3-ylamino)-N-(4-phenylpyridin-3-yl)isonicotinamide] | 0.97 nM | 0.65 nM | 297 nM | – | –
CC(O)c1c(NC(=O)c2ccnc(Nc3ccc(C(F)(F)F)cn3)c2)cnn1C (stereo not drawn) [Example 208, N-(5-(1-Hydroxyethyl)-1-methyl-1H-pyrazol-4-yl)-2-((5-(trifluoromethyl)pyridin-2-yl)amino)isonicotinamide] | 3 nM | 3.6 nM | 120 nM | – | –
O=C(Nc1cnccc1C1(F)COC1)c1ccnc(Nc2ccc(C(F)(F)F)cn2)c1 [Example 45, N-(4-(3-Fluorooxetan-3-yl)pyridin-3-yl)-2-((5-(trifluoromethyl)pyridin-2-yl)amino)isonicotinamide] | 17 nM | 11 nM | 150 nM | – | –
CC(C)(C)COc1ccncc1NC(=O)c1ccnc(Nc2ccc(C(F)(F)F)cn2)c1 [Example 17, N-(4-(Neopentyloxy)pyridin-3-yl)-2-((5-(trifluoromethyl)pyridin-2-yl)amino)isonicotinamide] | 1.6 nM | 0.89 nM | 43 nM | – | –
O=C(Nc1cnsc1-c1ccccc1)c1ccnc(Nc2ccc(C(F)(F)F)cn2)c1 [Example 204, N-(5-Phenylisothiazol-4-yl)-2-((5-(trifluoromethyl)pyridin-2-yl)amino)isonicotinamide] | 3 nM | 1.7 nM | 300 nM | – | –
